Our source for the EC50 values is patent publication US20220396569A1 (Carmot Therapeutics, Inc., priority 2021, published 2022).

A value given as a limit tells only on which side of the number the result lay.

One may read the EC50 as the concentration giving half of the maximal effect.

The target in this experiment is T1, human GLP-1 receptor (Homo sapiens, UniProt P43220).
T1 construct: expressed in transfected cells
T1 sequence (P43220 24-463): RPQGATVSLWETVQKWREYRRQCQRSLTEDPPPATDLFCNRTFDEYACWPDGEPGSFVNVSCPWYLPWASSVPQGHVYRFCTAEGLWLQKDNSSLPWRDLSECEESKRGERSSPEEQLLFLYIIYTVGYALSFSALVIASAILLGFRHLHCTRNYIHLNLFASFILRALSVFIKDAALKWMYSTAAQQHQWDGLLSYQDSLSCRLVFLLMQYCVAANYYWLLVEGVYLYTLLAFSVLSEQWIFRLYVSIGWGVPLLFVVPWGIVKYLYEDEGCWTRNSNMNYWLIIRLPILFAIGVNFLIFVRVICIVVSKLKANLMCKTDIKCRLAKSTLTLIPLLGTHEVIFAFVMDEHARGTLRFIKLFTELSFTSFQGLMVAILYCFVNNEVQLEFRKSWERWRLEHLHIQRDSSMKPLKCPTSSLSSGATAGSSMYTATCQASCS
The experiment is described as follows: GLP-1R cAMP Assay (HitHunter cAMP accumulation). The experiment is classed as cell-based. As to conditions: cAMP accumulation, CHO cells stably overexpressing human GLP-1 receptor, 30 min treatment; read-out: EC50. The method, boiled down:
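CHO cells stably expressing human GLP-1R, 10,000 cells/well in HBSS with 10 mM HEPES and 625 μM IBMX, were mixed with anti-cAMP antibody reagent. Compound was applied as a 20-point dose response in triplicate for 30 min. After lysis and overnight detection, luminescence was read and dose-response curves analysed.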
For the compound `O=C(O)c1ccc2nc(CN3CCC(c4cc(F)cc(COc5ccc(Cl)cc5F)c4)C3)n(C[C@@H]3CCO3)c2c1` (stereo partly drawn) [Compound 420, 2-[(3-{3-[(4-chloro-2-fluorophenoxy)methyl]-5-fluorophenyl}pyrrolidin-1-yl)methyl]-1-{[(2S)-oxetan-2-yl]methyl}-1H-1,3-benzodiazole-6-carboxylic acid], the EC50 is less than 50 nM. As for `N#Cc1ccc(OCc2nc(C3=CCN(Cc4nc5c(F)cc(C(=O)O)cc5n4C[C@@H]4CCO4)C3)ccc2F)c(F)c1` [Compound 421, 2-[(3-{6-[(4-cyano-2-fluorophenoxy)methyl]-5-fluoropyridin-2-yl}-2,5-dihydro-1H-pyrrol-1-yl)methyl]-4-fluoro-1-{[(2S)-oxetan-2-yl]methyl}-1H-1,3-benzodiazole-6-carboxylic acid], the figure is less than 50 nM. On to `N#CCC1(Cn2c(CN3CC=C(c4ccc(F)c(COc5ccc(C#N)cc5F)n4)C3)nc3ccc(C(=O)O)cc32)CC1` [Compound 422, 2-[(3-{6-[(4-cyano-2-fluorophenoxy)methyl]-5-fluoropyridin-2-yl}-2,5-dihydro-1H-pyrrol-1-yl)methyl]-1-{[l-(cyanomethyl)cyclopropyl]methyl}-1H-1,3-benzodiazole-6-carboxylic acid], for which the EC50 was less than 50 nM.

`N#Cc1ccc(OCc2nc(C3=CCN(Cc4nc5ccc(C(=O)O)cc5n4CC4(CC(N)=O)CC4)C3)ccc2F)c(F)c1` [Compound 423, 1-{[1-(carbamoylmethyl)cyclopropyl]methyl}-2-[(3-{6-[(4-cyano-2-fluorophenoxy)methyl]-5-fluoropyridin-2-yl}-2,5-dihydro-1H-pyrrol-1-yl)methyl]-1H-1,3-benzodiazole-6-carboxylic acid]: the EC50 was 50 to 500 nM. The value for `N#CCC1(Cn2c(CN3CC=C(c4ccc(F)c(COc5ccc(C#N)cc5F)n4)C3)nc3c(F)cc(C(=O)O)cc32)CC1` [Compound 424, 2-[(3-{6-[(4-cyano-2-fluorophenoxy)methyl]-5-fluoropyridin-2-yl}-2,5-dihydro-1H-pyrrol-1-yl)methyl]-1-{[1-(cyanomethyl)cyclopropyl]methyl}-4-fluoro-1H-1,3-benzodiazole-6-carboxylic acid] was less than 50 nM; that for `N#Cc1ccc(OCc2nc(C3=CCN(Cc4nc5c(F)cc(C(=O)O)cc5n4CC4(CC(N)=O)CC4)C3)ccc2F)c(F)c1` [Compound 425, 1-{[1-(carbamoylmethyl)cyclopropyl]methyl}-2-[(3-{6-[(4-cyano-2-fluorophenoxy)methyl]-5-fluoropyridin-2-yl}-2,5-dihydro-1H-pyrrol-1-yl)methyl]-4-fluoro-1H-1,3-benzodiazole-6-carboxylic acid] was 50 to 500 nM; that for `O=C(O)c1ccc2nc(CN3CC=C(c4cccc(COc5ccc(Cl)cc5F)c4F)C3)n(C[C@@H]3CCO3)c2c1` [Compound 426, 2-[(3-{3-[(4-chloro-2-fluorophenoxy)methyl]-2-fluorophenyl}-2,5-dihydro-1H-pyrrol-1-yl)methyl]-1-{[(2S)-oxetan-2-yl]methyl}-1H-1,3-benzodiazole-6-carboxylic acid] was 50 to 500 nM. Take `O=C(O)c1cc(F)c2nc(CN3CC[C@@H](c4ccnc(COc5ccc(Cl)cc5F)c4)C3)n(C[C@@H]3CCO3)c2c1` [Compound 428, 2-{[(3S)-3-{2-[(4-chloro-2-fluorophenoxy)methyl]pyridin-4-yl}pyrrolidin-1-yl]methyl}-4-fluoro-1-{[(2S)-oxetan-2-yl]methyl}-1H-1,3-benzodiazole-6-carboxylic acid]: the EC50 is less than 50 nM. As for `N#CCC1(Cn2c(CN3CC=C(c4ccc(F)c(COc5ccc(Cl)cc5F)n4)C3)nc3ccc(C(=O)O)cc32)CC1` [Compound 429, 2-[(3-{6-[(4-chloro-2-fluorophenoxy)methyl]-5-fluoropyridin-2-yl}-2,5-dihydro-1H-pyrrol-1-yl)methyl]-1-{[1-(cyanomethyl)cyclopropyl]methyl}-1H-1,3-benzodiazole-6-carboxylic acid], the figure is less than 50 nM; as for `N#CCC1(Cn2c(CN3CC=C(c4ccc(F)c(COc5ccc(Cl)cc5F)n4)C3)nc3c(F)cc(C(=O)O)cc32)CC1` [Compound 430, 2-[(3-{6-[(4-chloro-2-fluorophenoxy)methyl]-5-fluoropyridin-2-yl}-2,5-dihydro-1H-pyrrol-1-yl)methyl]-1-{[1-(cyanomethyl)cyclopropyl]methyl}-4-fluoro-1H-1,3-benzodiazole-6-carboxylic acid], less than 50 nM; as for `N#CCC1(Cn2c(CN3CC[C@@H](c4ccnc(COc5ccc(Cl)cc5F)c4)C3)nc3ccc(C(=O)O)cc32)CC1` [Compound 431, 2-{[(3S)-3-{2-[(4-chloro-2-fluorophenoxy)methyl]pyridin-4-yl}pyrrolidin-1-yl]methyl}-1-{[1-(cyanomethyl)cyclopropyl]methyl}-1H-1,3-benzodiazole-6-carboxylic acid], less than 50 nM.

As to `N#CCC1(Cn2c(CN3CC[C@@H](c4ccnc(COc5ccc(Cl)cc5F)c4)C3)nc3c(F)cc(C(=O)O)cc32)CC1` [Compound 432, 2-{[(3S)-3-{2-[(4-chloro-2-fluorophenoxy)methyl]pyridin-4-yl}pyrrolidin-1-yl]methyl}-1-{[1-(cyanomethyl)cyclopropyl]methyl}-4-fluoro-1H-1,3-benzodiazole-6-carboxylic acid], the half-maximal effective concentration (EC50) was less than 50 nM. The value for `N#CCC1(Cn2c(CN3CC[C@H](c4ccnc(COc5ccc(Cl)cc5F)c4)C3)nc3ccc(C(=O)O)cc32)CC1` [Compound 433, 2-{[(3R)-3-{2-[(4-chloro-2-fluorophenoxy)methyl]pyridin-4-yl}pyrrolidin-1-yl]methyl}-1-{[1-(cyanomethyl)cyclopropyl]methyl}-1H-1,3-benzodiazole-6-carboxylic acid] was 50 to 500 nM; that for `N#CCC1(Cn2c(CN3CC[C@H](c4ccnc(COc5ccc(Cl)cc5F)c4)C3)nc3c(F)cc(C(=O)O)cc32)CC1` [Compound 434, 2-{[(3R)-3-{2-[(4-chloro-2-fluorophenoxy)methyl]pyridin-4-yl}pyrrolidin-1-yl]methyl}-1-{[1-(cyanomethyl)cyclopropyl]methyl}-4-fluoro-1H-1,3-benzodiazole-6-carboxylic acid] was 50 to 500 nM; that for `O=C(O)c1ccc2nc(CN3CC=C(c4nc(COc5ccc(Cl)cc5F)ccc4F)C3)n(C[C@@H]3CCO3)c2c1` [Compound 436] was less than 50 nM.

With `O=C(O)c1cc(F)c2nc(CN3CC=C(c4nc(COc5ccc(Cl)cc5F)ccc4F)C3)n(C[C@@H]3CCO3)c2c1` [Compound 437, 2-[(3-{6-[(4-chloro-2-fluorophenoxy)methyl]-3-fluoropyridin-2-yl}-2,5-dihydro-1H-pyrrol-1-yl)methyl]-4-fluoro-1-{[(2S)-oxetan-2-yl]methyl}-1H-1,3-benzodiazole-6-carboxylic acid], the EC50 is less than 50 nM. As to `N#CCC1(Cn2c(CN3CC=C(c4nc(COc5ccc(Cl)cc5F)ccc4F)C3)nc3ccc(C(=O)O)cc32)CC1` [Compound 438, 2-[(3-{6-[(4-chloro-2-fluorophenoxy)methyl]-3-fluoropyridin-2-yl}-2,5-dihydro-1H-pyrrol-1-yl)methyl]-1-{[1-(cyanomethyl)cyclopropyl]methyl}-1H-1,3-benzodiazole-6-carboxylic acid], the half-maximal effective concentration (EC50) was less than 50 nM.

On to `N#Cc1ccc(OCc2cc([C@H]3CCN(Cc4nc5ccc(C(=O)O)cc5n4C[C@@H]4CCO4)C3)ccc2F)c(F)c1` [Compound 439, 2-{[(3R)-3-{3-[(4-cyano-2-fluorophenoxy)methyl]-4-fluorophenyl}pyrrolidin-1-yl]methyl}-1-{[(2S)-oxetan-2-yl]methyl}-1H-1,3-benzodiazole-6-carboxylic acid], for which the EC50 lay within 50 to 500 nM. On to `O=C(O)c1ccc2nc(CN3CC=C(c4cc(COc5ccc(Cl)cc5F)ncc4F)C3)n(C[C@@H]3CCO3)c2c1` [Compound 440, 2-[(3-{2-[(4-chloro-2-fluorophenoxy)methyl]-5-fluoropyridin-4-yl}-2,5-dihydro-1H-pyrrol-1-yl)methyl]-1-{[(2S)-oxetan-2-yl]methyl}-1H-1,3-benzodiazole-6-carboxylic acid], for which the EC50 is less than 50 nM.

As to `O=C(O)c1cc(F)c2nc(CN3CC[C@@H](c4cccc(COc5ccc(Cl)cc5F)n4)C3)n(C[C@@H]3CCO3)c2c1` [Compound 441, 2-{[(3R)-3-{6-[(4-chloro-2-fluorophenoxy)methyl]pyridin-2-yl}pyrrolidin-1-yl]methyl}-4-fluoro-1-{[(2S)-oxetan-2-yl]methyl}-1H-1,3-benzodiazole-6-carboxylic acid], the half-maximal effective concentration (EC50) was 50 to 500 nM.

`O=C(O)c1cc(F)c2nc(CN3CC[C@H](c4cccc(COc5ccc(Cl)cc5F)n4)C3)n(C[C@@H]3CCO3)c2c1` [Compound 442, 2-{[(3S)-3-{6-[(4-chloro-2-fluorophenoxy)methyl]pyridin-2-yl}pyrrolidin-1-yl]methyl}-4-fluoro-1-{[(2S)-oxetan-2-yl]methyl}-1H-1,3-benzodiazole-6-carboxylic acid]: the EC50 was less than 50 nM. As for `N#Cc1ccc(OCc2cc([C@@H]3CCN(Cc4nc5ccc(C(=O)O)cc5n4C[C@@H]4CCO4)C3)ccc2F)c(F)c1` [Compound 443, 2-{[(3S)-3-{3-[(4-cyano-2-fluorophenoxy)methyl]-4-fluorophenyl}pyrrolidin-1-yl]methyl}-1-{[(2S)-oxetan-2-yl]methyl}-1H-1,3-benzodiazole-6-carboxylic acid], the EC50 is less than 50 nM.

Regarding `N#Cc1ccc(OCc2cccc([C@H]3CCN(Cc4nc5c(F)cc(C(=O)O)cc5n4C[C@@H]4CCO4)C3)c2)c(F)c1` [Compound 444, 2-{[(3R)-3-{3-[(4-cyano-2-fluorophenoxy)methyl]phenyl}pyrrolidin-1-yl]methyl}-4-fluoro-1-{[(2S)-oxetan-2-yl]methyl}-1H-1,3-benzodiazole-6-carboxylic acid], the EC50 was greater than 500 nM.
